In ChEMBL document CHEMBL4020815 (J Med Chem, 2017):
In brackets after ≈: the same amount, converted by molar mass.

Key:
[1] = Antitumor activity against human MDA-MB-231met2 cells xenografted in athymic nude mouse assessed as tumor volume at 60 mg/kg, bid administered via oral gavage for 22 days relative to control; type: functional
Mus musculus [2] = experiment: In vivo inhibition of AICARFT in tumor of athymic nude mouse xenografted with human MDA-MB-231met2 cells assessed as increase in AICAr levels at 30 mg/kg, bid administered via oral gavage for 22 days relative to control; type: functional
[3] = Drug metabolism in microsomes (unknown origin); type: ADME, Microsome; settings: read-out: Drug metabolism
[4] = Antiproliferative activity against human MDA-MB-231met2 cells by Alamar blue assay; type: functional, cell-based
CYP2D6 = CYP2D6 (Homo sapiens, UniProt P10635); experiment: Inhibition of human CYP2D6 at 10 uM relative to control; type: ADME
Mus musculus [5] = experiment: In vivo inhibition of AICARFT in tumor of athymic nude mouse xenografted with human MDA-MB-231met2 cells assessed as increase in AICAr levels at 60 mg/kg, bid administered via oral gavage for 22 days relative to control; type: functional
Mus musculus [6] = experiment: In vivo inhibition of AICARFT in tumor of athymic nude mouse xenografted with human MDA-MB-231met2 cells assessed as increase in ZMP levels at 60 mg/kg, bid administered via oral gavage for 22 days relative to control; type: functional
Mus musculus [7] = experiment: Toxicity in athymic nude mouse xenografted with human MDA-MB-231met2 cells assessed as mortality at 30 to 60 mg/kg, bid administered via oral gavage for 22 days; type: organism-based; settings: in vivo, 528 h
NCI-H460 = experiment: Cytotoxicity against human NCI-H460 cells assessed as growth inhibition using regular folate media after 7 days by Alamar blue assay; type: functional; settings: NCI-H460, 168 h
[8] = Plasma concentration in CD-1 mouse at 10 mg/kg, po after 1 hr by LC-MS/MS method; type: ADME, organism-based
[9] = target: T1, Bifunctional methylenetetrahydrofolate dehydrogenase/cyclohydrolase, mitochondrial (Homo sapiens, UniProt P13995); experiment: Inhibition of MTHFD2 (unknown origin) using NAD/5,10-methylene THF as substrate after 30 mins by HPLC method
T1 sequence (P13995 whole entry): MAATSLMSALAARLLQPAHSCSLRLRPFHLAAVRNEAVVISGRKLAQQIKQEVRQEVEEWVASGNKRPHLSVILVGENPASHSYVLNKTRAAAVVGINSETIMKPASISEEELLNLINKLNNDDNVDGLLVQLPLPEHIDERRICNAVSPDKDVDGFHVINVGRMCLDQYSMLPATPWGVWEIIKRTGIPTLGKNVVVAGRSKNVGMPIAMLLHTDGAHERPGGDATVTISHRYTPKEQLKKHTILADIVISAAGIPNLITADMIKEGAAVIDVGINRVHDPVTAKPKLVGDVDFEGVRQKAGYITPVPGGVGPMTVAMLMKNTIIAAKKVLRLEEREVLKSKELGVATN

Mus musculus [10] = experiment: Unbound clearance in CD-1 mouse at 1 mg/kg, iv by LC-MS/MS method; type: ADME, organism-based; settings: in vivo
Mus musculus [11] = experiment: In vivo inhibition of AICARFT in tumor of low folate diet fed nude mouse xenografted with human NCI-H460 cells assessed as increase in circulating AICAr levels at 0.3 to 30 mg/kg after 4 hrs relative to vehicle-treated control; type: functional
Mus musculus [12] = experiment: In vivo inhibition of AICARFT in tumor of athymic nude mouse xenografted with human MDA-MB-231met2 cells assessed as increase in ZMP levels at 30 mg/kg, bid administered via oral gavage for 22 days relative to control; type: functional
[13] = Fraction unbound in CD-1 mouse plasma; type: ADME, cell-free
[14] = Equilibrium aqueous solubility of the compound at pH 7.5 after 20 hrs by HPLC method; type: physicochemical
[15] = target: T2, Bifunctional methylenetetrahydrofolate dehydrogenase/cyclohydrolase 2, mitochondrial (Homo sapiens, UniProt Q9H903); experiment: Inhibition of MTHFD2L (unknown origin) using NAD/5,10-methylene THF as substrate after 2 hrs by HPLC method
T2 sequence (Q9H903 whole entry): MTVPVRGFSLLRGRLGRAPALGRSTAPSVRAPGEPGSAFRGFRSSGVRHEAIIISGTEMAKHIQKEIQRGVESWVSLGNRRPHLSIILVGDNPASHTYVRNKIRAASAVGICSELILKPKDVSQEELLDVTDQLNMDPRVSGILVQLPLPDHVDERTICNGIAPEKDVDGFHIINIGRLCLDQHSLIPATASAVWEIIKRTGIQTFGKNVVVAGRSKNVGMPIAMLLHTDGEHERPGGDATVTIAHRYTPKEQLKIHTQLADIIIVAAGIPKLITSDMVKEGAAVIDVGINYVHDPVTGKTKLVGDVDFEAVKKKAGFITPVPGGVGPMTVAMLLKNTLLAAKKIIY

Mus musculus [16] = experiment: Toxicity in athymic nude mouse xenografted with human MDA-MB-231met2 cells assessed as body weight loss at 30 to 60 mg/kg, bid administered via oral gavage for 22 days; type: organism-based; settings: in vivo, 528 h
[17] = Permeability across apical to basolateral side in MDCK cells at 20 uM; type: ADME, cell-based, Canis lupus familiaris; settings: dog
MDA-MB-231 = experiment: Cytotoxicity against human MDA-MB-231 cells assessed as growth inhibition using regular folate media after 7 days by Alamar blue assay; type: functional; settings: MDA-MB-231, 168 h
CYP3A4 = CYP3A4 (Homo sapiens, UniProt P08684); experiment: Inhibition of human CYP3A4 at 10 uM relative to control; type: ADME
[18] = Oral bioavailability in CD-1 mouse at 10 mg/kg by LC-MS/MS method; type: ADME, organism-based; settings: in vivo
MDA-MB-231met2 = experiment: Antitumor activity against human MDA-MB-231met2 cells xenografted in athymic nude mouse assessed as tumor growth inhibition administered as bid via oral gavage for 22 days; type: functional, cell-based

Sequence of CYP3A4 (P08684 whole entry): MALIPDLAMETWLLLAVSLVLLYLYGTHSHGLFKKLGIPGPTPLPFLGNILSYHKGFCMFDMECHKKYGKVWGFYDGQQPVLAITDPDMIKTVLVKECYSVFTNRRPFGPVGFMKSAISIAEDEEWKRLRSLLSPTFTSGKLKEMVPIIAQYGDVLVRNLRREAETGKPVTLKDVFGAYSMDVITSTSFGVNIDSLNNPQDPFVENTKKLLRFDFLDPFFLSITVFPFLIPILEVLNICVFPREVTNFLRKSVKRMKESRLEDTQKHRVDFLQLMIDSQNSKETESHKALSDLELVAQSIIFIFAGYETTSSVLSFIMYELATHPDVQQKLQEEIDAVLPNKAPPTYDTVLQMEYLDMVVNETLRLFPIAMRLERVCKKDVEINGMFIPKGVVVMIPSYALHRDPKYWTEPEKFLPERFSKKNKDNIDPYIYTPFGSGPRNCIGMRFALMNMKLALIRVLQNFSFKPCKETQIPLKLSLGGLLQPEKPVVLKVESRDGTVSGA
Sequence of CYP2D6 (P10635 whole entry): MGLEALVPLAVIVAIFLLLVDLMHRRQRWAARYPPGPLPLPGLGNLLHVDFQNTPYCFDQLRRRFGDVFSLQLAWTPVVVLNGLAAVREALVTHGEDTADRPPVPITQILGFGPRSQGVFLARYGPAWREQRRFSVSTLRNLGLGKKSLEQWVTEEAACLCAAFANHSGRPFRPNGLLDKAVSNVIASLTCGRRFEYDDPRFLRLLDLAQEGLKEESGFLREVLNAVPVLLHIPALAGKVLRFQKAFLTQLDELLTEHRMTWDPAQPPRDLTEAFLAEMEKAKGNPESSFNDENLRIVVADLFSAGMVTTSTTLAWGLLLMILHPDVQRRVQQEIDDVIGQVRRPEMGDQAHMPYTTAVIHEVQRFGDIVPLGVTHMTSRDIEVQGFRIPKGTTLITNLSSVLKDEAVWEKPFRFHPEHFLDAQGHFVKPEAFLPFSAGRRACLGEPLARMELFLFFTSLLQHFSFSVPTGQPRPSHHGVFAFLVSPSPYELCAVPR

**Q.** For O=c1[nH]ccc2cc(F)c(NS(=O)(=O)c3ccc(N4CC[C@@H](O)C4)s3)cc12, which Activity [1] is on record?
**A.** Its Activity is -1%.

**Q.** And the “fold change (FC)” value (Mus musculus [2])?
**A.** The value was 30.

**Q.** What about the metabolised [3] of the same compound?
**A.** The metabolised was under 10%.

**Q.** And the IC50 [4]?
**A.** Its IC50 is 0.085 µM.

**Q.** And the inhibition at 10 µM (CYP2D6)?
**A.** Its inhibition at 10 µM is under 10%.

**Q.** What about the “fold change (FC)” value (Mus musculus [5]) of the same compound?
**A.** The value was 3.

**Q.** And the “fold change (FC)” value (Mus musculus [6])?
**A.** The value was 16.

**Q.** And the Activity (Mus musculus [7])?
**A.** Its Activity is “Non-Toxic”.

**Q.** What about the GI50 (NCI-H460) of the same compound?
**A.** The GI50 was 6.58 µM.

**Q.** What about the concentration at 1 h [8] of the same compound?
**A.** The concentration at 1 h was 8.5 µM.

**Q.** And the IC50 [9]?
**A.** Its IC50 is over 100 µM.

**Q.** What about the CL free (Mus musculus [10]) of the same compound?
**A.** Its CL free is 78 mL/min/kg.

**Q.** What about the “fold change (FC)” value (Mus musculus [11]) of the same compound?
**A.** The value was 80.

**Q.** What about the “fold change (FC)” value (Mus musculus [12]) of the same compound?
**A.** Its value is 10.

**Q.** What about the fraction unbound [13] of the same compound?
**A.** The fraction unbound was 0.06.

**Q.** And the solubility thermodynamic at 20 h [14]?
**A.** Its solubility thermodynamic at 20 h is 20 µg/mL (≈ 48.8 µM).

**Q.** And the IC50 [15]?
**A.** Its IC50 is over 100 µM.

**Q.** What about the Activity (Mus musculus [16]) of the same compound?
**A.** The Activity was “Non-Toxic”.

**Q.** And the permeability [17]?
**A.** The permeability was 0.2%.

**Q.** And the GI50 (MDA-MB-231)?
**A.** Its GI50 is 0.044 µM.

**Q.** What about the inhibition at 10 µM (CYP3A4) of the same compound?
**A.** Its inhibition at 10 µM is under 10%.

**Q.** What about the bioavailability [18] of the same compound?
**A.** The bioavailability was 25%.

**Q.** What about the TGI (MDA-MB-231met2) of the same compound?
**A.** The TGI was “Dose-dependent effect”.
